Laboratory results taken from patent EP1897937A1, “Method of culturing NPCs” (NeuroProgen GmbH Leipzig, priority 2006, dated 2008).

What was measured:
Assay type in all cases: cell-based, human
hmNPCs [1] = experiment: Cell death / cell cycle assay (propidium iodide, FACS); conditions: 30 minutes pretreatment; 10 µM suramin or 100 µM PPADS
Method: Untreated (control) and treated exponentially growing […] were prepared for cell cycle analysis by lysing cells in 300 μl of hypotonic lysis buffer (0.1% sodium citrate, 0.1% Triton X-100, and 50 μg/ml propidium iodide [PI]). […] Histograms of DNA content were acquired using the CellQuest software. […] For data analysis and correction of the background, noise histograms were processed with the ModFit LT software (Verity, Turramurra, Australia).

hmNPCs [2] = experiment: Dopaminergic differentiation: TH protein expression by Western blot; conditions: pre-treatment with 100 µM antagonist; UTP 1 µM in expansion, 100 µM in differentiation
hmNPCs [3] = experiment: Western blot of proliferation marker PCNA and survival marker Bcl-2; conditions: 100 µM antagonist, 2 times during the 2 weeks proliferation period, before 1 µM UTP
Method: To determine long-term proliferation, hmNPCs were plated and expanded for 2 passages with or without addition of various agents (see below) to the custom expansion media containing the growth factors EGF and FGF2. Different fetal midbrain tissues were included in this study. At the end of the proliferation period, differentiation of hmNPCs was induced via replacement of expansion media with mitogen-free media containing 1% FCS, 5 µM forskoline (Sigma-Aldrich Chemie GmbH Munich, Germany), and 100 pg/ml IL-1β (Sigma). The differentiation and expansion media were supplemented with different drugs as appropriate. Prior to immunocytochemistry or protein extraction, hmNPCs were allowed to differentiate for 1 week. To determine short-term proliferation via Ki67 immunostaining, the cells were seeded into 24-well plates (70,000 cells/well) and left overnight to rest. P2 receptor agonists (ATP, UTP, ATP + UTP, ADP, ADPβS) were supplied daily for 5 consecutive days. Ki67/nestin double-positive cells were counted in 8 randomly selected fields of nucleotide-treated or untreated samples. For the assessment of MAPK phosphorylation the cells were kept free of mitogens for 2 d prior to addition of the MEK-inhibitor in expansion media. In addition, the MEK-inhibitor was added during the differentiation period 15 min before UTP administration.
In order to prepare protein extracts, hmNPCs were collected, washed with ice-cold PBS and lysed in buffer [10 mM HEPES-KOH (pH 7.9), 10 mM KCI, 1.5 mM MgCl2, 0.1% NP-40], supplemented with protease inhibitor cocktail (Roche). After a brief centrifugation at 4°C/10 000×g, protein concentrations and protein yield from extracts were determined using the Bradford method (Bio-Rad, Hercules, CA, USA). To preserve the phosphorylation state of proteins, extracts for the MAPK experiment were obtained using the PhosphoSafe™ extraction reagent containing phophatase inhibitors (Novagen). […] The chemiluminescence was quantified using the AIDA, two-dimensional densitometry software (Raytest lsotopenmeb, Straubenhardt, Germany). […]

Q: Which “block of the anti-proliferative effects of ATP, ADP and ADPβS” value (hmNPCs [1]) does the source give for `Cc1nc(N=Nc2ccc(S(=O)(=O)O)cc2S(=O)(=O)O)c(COP(=O)(O)O)c(C=O)c1O` [PPADS, Pyridoxal-phosphate-6-azophenyl-2',4'-disulphonic acid] here?
A: failed to block

Q: What about the “TH expression increase by UTP, antagonist pre-treatment” value (hmNPCs [2]) of the same compound?
A: completely blocked

Q: What about the “PCNA expression, antagonist before UTP” value (hmNPCs [3]) of the same compound?
A: reduced the PCNA expression to control levels
